Measurements reported in patent publication US9073858B2, “Methods of targeted drug development” (priority 2010, dated 2015).
Where two headings read alike, the source gives them in different places.

Experiments:
[1] = tested on: caspase 3,7 activity in A431 cells; assay: cells
Source text: As described below, the capsase 3,7 assay uses the Promega Caspase-Glo 3/7 assay kit (cat no. G8092).
The Caspase-Glo® 3/7 Assay is a luminescent assay that measures caspase-3 and −7 activities in purified enzyme preparations or cultures of adherent or suspension cells. The assay provides a proluminescent caspase-3/7 substrate, which contains the tetrapeptide sequence, DEVD. This substrate is cleaved to release aminoluciferin, a substrate of luciferase used in the production of light. The Caspase-Glo® 3/7 Reagent has been optimized for caspase activity, luciferase activity and cell lysis. The addition of the single Caspase-Glo® 3/7 Reagent in an “add-mix-measure” format results in cell lysis, followed by caspase cleavage of the substrate and generation of a “glow-type” luminescent signal. The Caspase-Glo® 3/7 Assay is designed for use with multiwell plate formats, making it ideal for automated high-throughput screening of caspase activity or apoptosis.
Staurosporine was used as a positive control.
For the capsase 3,7 assay, cells were incubated for 5.5 hrs at 37° C., 5% CO2. The plate was removed from the incubator and equilibrated to room temperature. After 30 min, 25 μl Caspase 3/7 detection reagent (Promega Caspase-Glo 3/7 assay kit, cat no. G8092) was added to each well. The plate was covered with tin foil and shaken on a plate shaker at speed 4 for 3 min. The plate was then incubated for an additional 60 min at room temperature. Luminescence was detected using the PolarStar plate reader.
All statistical analyses were done using GraphPad Prism.
The assay was stopped after 6 hrs and the presence of caspase was measured using the Promega Caspase-Glo® 3/7 Assay.

MDBK line = assay: MTT Cell Proliferation Assay, MDBK line; assay type: cell-based, bovine; conditions: Bos taurus, MDBK
Method in brief: (§1)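 Cells plated overnight, then exposed 3 days at 37 °C, 5% CO2 to compound in growth medium with 0.5% FBS and 0.5% DMSO final (0.5% DMSO as control).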

[2] = tested on: epithelial carcinoma A431 cell line; assay: MTT Cell Proliferation Assay, A431 cell line; assay type: cell-based; conditions: for IC50: Homo sapiens
Method in brief: as §1

[3] = Homo sapiens, A-431, read-out: Total Apoptosis (increase in caspase 3,7 activity as percentage of the maximal response)

IC50 ([2]; A-431, 10 point follow-up, first value of pair, read-out: MTT (10 Point follow-up) A431) [nM]	IC50 ([2]; A-431, 72 h, 72 h, first value of A431/MDBK pair, read-out: MTT-72 h A431) [nM]	Compound	Emax at 8 µM [1, 3] [%]	Emax at 16 µM [1, 3] [%]	effect on Tarceva to increase caspase 3,7 activity ([1]; Tarceva plus compound, A431 cells, 6 hrs)	Ability to Synergize with Tarceva ([1]; caspase 3,7 activity, A431 cells)	IC50 (MDBK line; 10 point follow-up, second value of pair, read-out: MTT (10 Point follow-up) MDBK) [nM]	IC50 (MDBK line; 72 h, second value of A431/MDBK pair, read-out: MTT-72 h MDBK) [nM]	MTT (10 Point follow-up) ratio ([2]; 10 point follow-up, value in brackets, numerically MDBK over A431)	MTT-72 h A431/MDBK (ratio) ([2]; 72 h, value in brackets, numerically MDBK value over A431 value)
		Cc1c(Cl)cnc(NC(c2cccc(Cl)c2Cl)c2ccc3cccnc3c2O)c1F (stereo not shown) [AD4-13192]	29	32	synergistic (greater-than-additive) effect	+++ (0.3-0.7 Synergism)				
279	290	Oc1c(C(Nc2ccccn2)c2ccc(C(F)(F)F)cc2)ccc2cccnc12 (stereo not shown) [compound 10460]					375	530	1.34	1.84
